Test results reported in US9814704B2, “Substituted pyrrolo[2,3-b]pyridines as MLK inhibitors” (The University of Rochester, priority 2008, dated 2017).
Where two headings read alike, the source gives them in different places.

Molecular target: MLK3 (Homo sapiens (Human), UniProt Q16584)
Assay: Radiometric Filter Plate MLK3 Assay
Type: biochemical
Conditions: read-out: MK3 IC50
Description: Radiometric Filter Plate MLK3 Assay
After a twenty minute incubation, the reactions were washed through filter plates and read on a scintillation counter. Results are shown in Table 4 below, in which +++ indicates ≦0.1 μM, ++ indicates >0.1 μM and ≦1 μM, and + indicates >1 μM.

[1] = 200 ng (130 nM) MLK3, 1 μM inactive MKK7b, 2 μM cold ATP (Km), 33P ATP, twenty minute incubation

Sequence of MLK3 (Q16584 whole entry): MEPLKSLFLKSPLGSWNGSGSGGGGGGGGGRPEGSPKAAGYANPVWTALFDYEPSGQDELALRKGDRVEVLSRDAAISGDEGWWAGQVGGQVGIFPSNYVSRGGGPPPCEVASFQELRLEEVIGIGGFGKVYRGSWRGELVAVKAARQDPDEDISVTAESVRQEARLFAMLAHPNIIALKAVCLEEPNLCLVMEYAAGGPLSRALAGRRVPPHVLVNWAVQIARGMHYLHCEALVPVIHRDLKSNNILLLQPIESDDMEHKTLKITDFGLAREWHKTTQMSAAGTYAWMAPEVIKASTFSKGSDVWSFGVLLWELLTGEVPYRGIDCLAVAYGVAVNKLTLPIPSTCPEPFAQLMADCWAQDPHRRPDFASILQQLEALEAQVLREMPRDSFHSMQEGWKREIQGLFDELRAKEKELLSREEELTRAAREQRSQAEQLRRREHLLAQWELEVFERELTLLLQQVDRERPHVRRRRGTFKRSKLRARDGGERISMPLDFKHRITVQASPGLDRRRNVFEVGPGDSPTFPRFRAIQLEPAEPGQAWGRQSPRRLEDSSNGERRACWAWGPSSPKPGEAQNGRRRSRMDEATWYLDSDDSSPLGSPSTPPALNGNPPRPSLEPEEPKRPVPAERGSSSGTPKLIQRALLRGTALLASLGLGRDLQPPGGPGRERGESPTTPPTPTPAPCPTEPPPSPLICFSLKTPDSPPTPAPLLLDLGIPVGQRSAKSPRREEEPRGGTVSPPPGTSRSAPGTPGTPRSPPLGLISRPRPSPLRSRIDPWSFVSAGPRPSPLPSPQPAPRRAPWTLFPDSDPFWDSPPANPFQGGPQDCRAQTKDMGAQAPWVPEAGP

IC50 [nM] | IC50 [1] [nM] | SMILES
100 to 1000 |  | COc1ccc(-c2cnc3[nH]cc(-c4ccc5[nH]ccc5c4)c3c2)cc1OC [Example 2, 5-(3,4-dimethoxyphenyl)-3-(1H-indol-5-yl)-1H-pyrrolo[2,3-b]pyridine]
 | < 100 | CC(=O)Nc1ccc(-c2cnc3[nH]cc(-c4ccc5[nH]ccc5c4)c3c2)cc1 [Example 3, N-(4-(3-(1H-indol-5-yl)-1H-pyrrolo[2,3-b]pyridin-5-yl)phenyl)acetamide]
 | < 100 | COc1cc(-c2cnc3[nH]cc(-c4ccc5[nH]ccc5c4)c3c2)ccc1N [Example 5, 4-(3-(1H-indol-5-yl)-1H-pyrrolo[2,3-b]pyridin-5-yl)-2-methoxyaniline]
100 to 1000 |  | COc1ccc(-c2cnc3[nH]cc(-c4ccc5[nH]ccc5c4)c3c2)cn1 [Example 6, 3-(1H-indol-5-yl)-5-(6-methoxypyridin-3-yl)-1H-pyrrolo[2,3-b]pyridine]
 | < 100 | CN1CCN(c2cc(-c3cnc4[nH]cc(-c5ccc6[nH]ccc6c5)c4c3)ccn2)CC1 [Example 7, 3-(1H-indol-5-yl)-5-(2-(4-methylpiperazin-1-yl)pyridin-4-yl)-1H-pyrrolo[2,3-b]pyridine]
 | < 100 | Nc1ccc(-c2cnc3[nH]cc(-c4ccc5[nH]ccc5c4)c3c2)cc1 [Example 8, 4-(3-(1H-indol-5-yl)-1H-pyrrolo[2,3-b]pyridin-5-yl)aniline]
100 to 1000 |  | c1cc2cc(-c3c[nH]c4ncc(-c5ccc(N6CCNCC6)nc5)cc34)ccc2[nH]1 [Example 10, 3-(1H-indol-5-yl)-5-(6-(piperazin-1-yl)pyridin-3-yl)-1H-pyrrolo[2,3-b]pyridine]
 | < 100 | CS(=O)(=O)Nc1ccc(-c2cnc3[nH]cc(-c4ccc5[nH]ccc5c4)c3c2)cc1 [Example 11, N-(4-(3-(1H-indol-5-yl)-1H-pyrrolo[2,3-b]pyridin-5-yl)phenyl)methanesulfonamide]
100 to 1000 |  | c1cc2cc(-c3cnc4[nH]cc(-c5ccc6[nH]ccc6c5)c4c3)ccc2[nH]1 [Example 12, 3,5-di(1H-indol-5-yl)-1H-pyrrolo[2,3-b]pyridine]
100 to 1000 |  | CN(C)c1ccc(-c2cnc3[nH]cc(-c4ccc5[nH]ccc5c4)c3c2)cn1 [Example 13, 5-(3-(1H-indol-5-yl)-1H-pyrrolo[2,3-b]pyridin-5-yl)-N,N-dimethylpyridin-2-amine]
100 to 1000 |  | c1ccc(-c2cnc3[nH]cc(-c4ccc5[nH]ccc5c4)c3c2)cc1 [Example 14, 3-(1H-indol-5-yl)-5-phenyl-1H-pyrrolo[2,3-b]pyridine]
 | < 100 | COc1cc(-c2cnc3[nH]cc(-c4ccc(N)cc4)c3c2)cc(OC)c1OC [Example 15, 4-(5-(3,4,5-trimethoxyphenyl)-1H-pyrrolo[2,3-b]pyridin-3-yl)aniline]
 | < 100 | COc1cc(-c2cnc3[nH]cc(-c4ccc(NC(C)=O)cc4)c3c2)cc(OC)c1OC [Example 16, N-(4-(5-(3,4,5-trimethoxyphenyl)-1H-pyrrolo[2,3-b]pyridin-3-yl)phenyl)acetamide]
 | < 100 | COc1cc(-c2cnc3[nH]cc(-c4ccc(N(C)C)nc4)c3c2)cc(OC)c1OC [Example 19, N,N-dimethyl-5-(5-(3,4,5-trimethoxyphenyl)-1H-pyrrolo[2,3-b]pyridin-3-yl)pyridin-2-amine]
 | > 1000 | Nc1ncc(-c2cnc3[nH]cc(-c4cnc(N)nc4)c3c2)cn1 [Example 20, 5,5′-(1H-pyrrolo[2,3-b]pyridine-3,5-diyl)dipyrimidin-2-amine]
100 to 1000 |  | CN(C)c1ccc(-c2cnc3[nH]cc(-c4ccc(N(C)C)nc4)c3c2)cn1 [Example 21, 5,5′-(1H-pyrrolo[2,3-b]pyridine-3,5-diyl)bis(N,N-dimethylpyridin-2-amine)]
 | > 1000 | CN(C)c1ccc(-c2cnc3[nH]cc(-c4ccc(F)c(Cl)c4)c3c2)cn1 [Example 22, 5-(3-(3-chloro-4-fluorophenyl)-1H-pyrrolo[2,3-b]pyridin-5-yl)-N,N-dimethylpyridin-2-amine]
100 to 1000 |  | Nc1ccc(-c2c[nH]c3ncc(-c4ccc(N)nc4)cc23)cc1 [Example 23, 5-(3-(4-aminophenyl)-1H-pyrrolo[2,3-b]pyridin-5-yl)pyridin-2-amine]
 | < 100 | COc1cc(-c2cnc3[nH]cc(-c4ccc5c(ccn5C)c4)c3c2)cc(OC)c1OC [Example 24, 3-(1-methyl-1H-indol-5-yl)-5-(3,4,5-trimethoxyphenyl)-1H-pyrrolo[2,3-b]pyridine]
 | < 100 | COc1cc(-c2cnc3[nH]cc(-c4ccc(C(N)=O)cc4)c3c2)cc(OC)c1OC [Example 25, 4-(5-(3,4,5-trimethoxyphenyl)-1H-pyrrolo[2,3-b]pyridin-3-yl)benzamide]
 | < 100 | COc1ccc(-c2cnc3[nH]cc(-c4ccc(C(N)=O)cc4)c3c2)cc1OC [Example 26, 4-(5-(3,4-dimethoxyphenyl)-1H-pyrrolo[2,3-b]pyridin-3-yl)benzamide]

IC50 [nM] | IC50 [1] [nM] | SMILES
100 to 1000 |  | COc1cc(-c2cnc3[nH]cc(-c4ccc(C(N)=O)cc4)c3c2)ccc1N [Example 27, 4-(5-(4-amino-3-methoxyphenyl)-1H-pyrrolo[2,3-b]pyridin-3-yl)benzamide]
100 to 1000 |  | NC(=O)c1ccc(-c2c[nH]c3ncc(-c4ccc(N)nc4)cc23)cc1 [Example 28, 4-(5-(6-aminopyridin-3-yl)-1H-pyrrolo[2,3-b]pyridin-3-yl)benzamide]
 | > 1000 | Nc1ccc(-c2cnc3[nH]cc(-c4ccc(F)c(Cl)c4)c3c2)cn1 [Example 29, 5-(3-(3-chloro-4-fluorophenyl)-1H-pyrrolo[2,3-b]pyridin-5-yl)pyridin-2-amine]
< 100 |  | CNc1ccc(-c2cnc3[nH]cc(-c4ccc5[nH]ccc5c4)c3c2)cn1 [Example 30, 5-(3-(1H-indol-5-yl)-1H-pyrrolo[2,3-b]pyridin-5-yl)-N-methylpyridin-2-amine]
 | < 100 | CN(C)Cc1ccc(-c2cnc3[nH]cc(-c4ccc5[nH]ccc5c4)c3c2)cc1 [Example 33, 1-(4-(3-(1H-indol-5-yl)-1H-pyrrolo[2,3-b]pyridin-5-yl)phenyl)-N,N-dimethylmethanamine]
< 100 |  | COc1cc(-c2cnc3[nH]cc(-c4ccc5[nH]ccc5c4)c3c2)ccc1OCCN1CCNCC1 [Example 34, 3-(1H-indol-5-yl)-5-(3-methoxy-4-(2-(piperazin-1-yl)ethoxy)phenyl)-1H-pyrrolo[2,3-b]pyridine]
 | > 1000 | COc1cc(-c2cnc3[nH]cc(-c4ccc5[nH]ccc5c4)c3c2)ccc1OCCN(C)C [Example 35, 2-(4-(3-(1H-indol-5-yl)-1H-pyrrolo[2,3-b]pyridin-5-yl)-2-methoxyphenoxy)-N,N-dimethylethanamine]
< 100 |  | COc1cc(-c2cnc3[nH]cc(-c4ccc5[nH]ccc5c4)c3n2)cc(OC)c1OC [Example 36, 7-(1H-indol-5-yl)-2-(3,4,5-trimethoxyphenyl)-5H-pyrrolo[3,2-b]pyrazine]
 | < 100 | COc1ccc(-c2cnc3[nH]cc(-c4ccc5[nH]ccc5c4)c3n2)cc1OC [Example 37, 2-(3,4-dimethoxyphenyl)-7-(1H-indol-5-yl)-5H-pyrrolo[3,2-b]pyrazine]
 | < 100 | COc1cc(-c2cnc3[nH]cc(-c4ccc5[nH]ccc5c4)c3n2)ccc1N [Example 38, 4-(7-(1H-indol-5-yl)-5H-pyrrolo[3,2-b]pyrazin-2-yl)-2-methoxyaniline]
 | < 100 | COc1cc(-c2cnc3[nH]cc(-c4ccc5[nH]ccc5c4)c3n2)ccc1OCCN1CCOCC1 [Example 39, 4-(2-(4-(7-(1H-indol-5-yl)-5H-pyrrolo[3,2-b]pyrazin-2-yl)-2-methoxyphenoxy)ethyl)morpholine]
 | < 100 | COc1cc(-c2cnc3[nH]c(=O)n(-c4ccc5[nH]ccc5c4)c3n2)cc(OC)c1OC [Example 40, 1-(1H-indol-5-yl)-6-(3,4,5-trimethoxyphenyl)-1H-imidazo[4,5-b]pyrazin-2(3H)-one]
100 to 1000 |  | COc1cc(-c2cnc3[nH]c(=O)n(-c4ccc5c(ccn5C)c4)c3n2)cc(OC)c1OC [Example 41, 1-(1-methyl-1H-indol-5-yl)-6-(3,4,5-trimethoxyphenyl)-1H-imidazo[4,5-b]pyrazin-2(3H)-one]
 | > 1000 | Cn1ccc2cc(-n3c(=O)[nH]c4ncc(-c5ccc(O)cc5)nc43)ccc21 [Example 42, 6-(4-hydroxyphenyl)-1-(1-methyl-1H-indol-5-yl)-1H-imidazo[4,5-b]pyrazin-2(3H)-one]
 | > 1000 | Cc1cc(C)cc(-c2cnc3[nH]c(=O)n(-c4ccc5c(ccn5C)c4)c3n2)c1 [Example 43, 6-(3,5-dimethylphenyl)-1-(1-methyl-1H-indol-5-yl)-1H-imidazo[4,5-b]pyrazin-2(3H)-one]
 | > 1000 | O=c1[nH]c2ncc(-c3ccncc3)nc2n1-c1ccc2[nH]ccc2c1 [Example 44, 1-(1H-indol-5-yl)-6-(pyridin-4-yl)-1H-imidazo[4,5-b]pyrazin-2(3H)-one]
100 to 1000 |  | O=c1[nH]c2ncc(-c3ccc(O)cc3)nc2n1-c1ccc2[nH]ccc2c1 [Example 45, 6-(4-hydroxyphenyl)-1-(1H-indol-5-yl)-1H-imidazo[4,5-b]pyrazin-2(3H)-one]
 | > 1000 | Cc1cc(C)cc(-c2cnc3[nH]c(=O)n(-c4ccc5[nH]ccc5c4)c3n2)c1 [Example 46, 6-(3,5-dimethylphenyl)-1-(1H-indol-5-yl)-1H-imidazo[4,5-b]pyrazin-2(3H)-one]
100 to 1000 |  | COc1ccc(-c2cnc3[nH]c(=O)n(-c4ccc5[nH]ccc5c4)c3n2)cc1OC [Example 47, 6-(3,4-dimethoxyphenyl)-1-(1H-indol-5-yl)-1H-imidazo[4,5-b]pyrazin-2(3H)-one]
 | > 1000 | O=c1[nH]c2ncc(-c3cc(Cl)cc(Cl)c3)nc2n1-c1ccc2[nH]ccc2c1 [Example 48, 6-(3,5-dichlorophenyl)-1-(1H-indol-5-yl)-1H-imidazo[4,5-b]pyrazin-2(3H)-one]

SMILES | IC50 [nM] | IC50 [1] [nM]
COc1cc(-c2cnc3c(c2)C(=Cc2cccnc2)C(=O)N3)cc(OC)c1OC (racemic) [Example 128, 3-pyridin-3-ylmethylene-5-(3,4,5-trimethoxy-phenyl)-1,3-dihydro-pyrrolo[2,3-b]pyridin-2-one] | 100 to 1000 | 
